In patent publication US8217000B2, “Method for elevating prolactin in mammals” (Cara Therapeutics, Inc., priority 2006, dated 2012):
Structures can show the parent of a compound that is named as a salt. Non-standard residues stand in square brackets, D forms with d. Residues, ends and D or L forms follow the SMILES beside them. *: point of attachment. NH(4-picolyl) = c1cc(CN*)ccn1; dNle = CCCC[C@@H](N)C(=O)O

Test: Plasma pharmacokinetics of CR665 after single IV infusion in human subjects
Conditions: for AUC(0-inf) / clearance / Cmax / MRT / Vd / half-life / Tmax / AUC(0-t): male, human, plasma, iv; for AUC(0-inf): AUC0-∞; for clearance: CL; for MRT: MRTint; for half-life: t1/2, males; for Tmax: median; for AUC(0-t): AUC0-t; for MRTint, geometric least squares mean: Parts A & B
Protocol: This clinical study was conducted as a double blind, placebo controlled, ascending single intravenous (IV) dose, sequential group study. This study was double blind and placebo controlled in order to avoid bias in the collection and evaluation of data during its conduct. […] In each group, subjects received CR665 or placebo. Doses were administered as a single constant rate IV infusion over 1 hour (part A) or 5 minutes (part B) on the morning of Day 1. Doses were administered in an escalating manner following satisfactory review of the safety data and pharmacokinetic data from the lower dose levels. There was a minimum of 6 days between dose escalations to allow sufficient time for an adequate safety review.
Plasma and urine samples for the analysis of CR665 and N oxide metabolite were prepared by solid phase extraction. The centrifuged eluates were quantified by liquid chromatography with tandem mass spectrometric detection (LC MS/MS). The lower limit of quantification was 1 ng/mL.
For pharmacokinetic assessments, blood samples (1×3 mL) were taken from the contralateral forearm vein(s) at the following times: Pre-dose, 15 minutes, 30 minutes, 45 minutes, 1 hour (immediately prior to the end of infusion), 1 hour 5 minutes, 1 hour 10 minutes, 1 hour 15 minutes, 1.5, 2, 2.5, 3, 4, 6, 8, 12, 16, 24, 36 and 48 hours after the start of the infusion). An indwelling cannula (Venflon®; BOC Ohmeda AB, Sweden) was used for all blood collection pre-dose and up to at least 12 hours after the start of the infusion. Otherwise, samples were collected using venipuncture. Blood samples were collected into pre-chilled 3 mL K3EDTA Vacutainer™ tubes (Becton Dickinson UK, Ltd., Oxford) and, after mixing, were placed in a cool box containing crushed ice/water. The samples were centrifuged, within 30 minutes of collection, at 1500 g for 10 minutes at approximately 4° C. For each sample, the separated plasma was transferred into two 5 mL suitably labeled polypropylene tubes, and stored immediately at approximately −20° C. Plasma samples were analyzed for CR665 using liquid chromatography with tandem mass spectrometric detection.
The pharmacokinetic analysis was conducted using WinNonlin Enterprise Version 4.0.1.
Pharmacokinetic parameters were determined from the plasma and urine, concentrations of CR665 and the N-oxide metabolite using non compartmental procedures.
Dose and body weight normalized values (norm) were determined for AUC0-t, AUC0-∞, Cinf and Cmax. Body weight normalized values [norm] were determined for Vz, Vss, CL and CLR.
The pharmacokinetic analysis was conducted using model independent methods as implemented in WinNonlin software, based on plasma concentrations of CR665 from those subjects who have received CR665 and have evaluable plasma concentration-time profiles.
The following plasma pharmacokinetic parameters were determined for CR665: • Cmax Maximum plasma concentration • tmax Time of maximum plasma concentration • t1/2z Terminal half-life=ln(2)/λz • AUC0-1 Area under the plasma concentration-time curve from time zero to time t (time of last quantifiable plasma concentration) • AUCinf Area under the plasma concentration-time curve from time zero to infinity calculated as [AUC0-t+(Clast/λz)] where Clast is the estimated concentration at the last quantifiable concentration curve. • λz Terminal-phase rate constant, also known as Kel • CL Total body clearance=Dose/AUCinf • Vz Volume of distribution based on terminal phase calculated as Vz/F=Dose/λz*AUCinf
Individual elapsed sampling times were used in the pharmacokinetic analysis. Cmax and tmax were obtained directly from the experimental observations. For the purpose of calculating AUC0-t, when two consecutive plasma concentrations below the lower limit of quantification (LLOQ) were encountered after tmax, all subsequent values were excluded from the analysis.

[1] = 0.06 mg/kg, males, 5-minute IV infusion, geometric mean
[2] = 0.06 mg/kg, males, 1 hour IV infusion, geometric mean
[3] = 0.09 mg/kg, males, 5-minute IV infusion, geometric mean
[4] = 0.12 mg/kg, males, 1 hour IV infusion, geometric mean
[5] = 0.24 mg/kg, males, 1 hour IV infusion, geometric mean
[6] = 0.36 mg/kg, males, 1 hour IV infusion, geometric mean
[7] = 0.42 mg/kg, males, 1 hour IV infusion, geometric mean
[8] = 0.48 mg/kg, males, 1 hour IV infusion, geometric mean
[9] = males, all doses, 5-minute infusion

For `CCCC[C@@H](NC(=O)[C@@H](Cc1ccccc1)NC(=O)[C@H](N)Cc1ccccc1)C(=O)N[C@H](CCCNC(=N)N)C(=O)NCc1ccncc1` [CR665, D-phenylalanyl-D-phenylalanyl-D-norleucyl-N-(4-pyridinylmethyl)-D-argininamide, acetate salt] (H-[dF][dF][dNle][dR]-{NH(4-picolyl)}), the AUC(0-inf) [1] was 142 ng·h/mL, the AUC(0-inf) [2] was 132 ng·h/mL and the clearance [1] was 553 mL/min. It also gave a clearance [2] of 564 mL/min, a Cmax [1] of 624 ng/mL and a Cmax [2] of 119 ng/mL. For the same molecule, the MRT [1] was 30.1 min, the MRT [2] was 33.8 min and the Vd (0.06 mg/kg, Vss, males, 0.06 mg/kg, 5-minute IV infusion, geometric mean) was 16.6 L. The Vd (0.06 mg/kg, Vss, males, 0.06 mg/kg, 1 hour IV infusion, geometric mean) was 19 L, the Vd (0.06 mg/kg, Vz, males, 5-minute IV infusion, geometric mean) was 48 L and the Vd (0.06 mg/kg, Vz, males, 1 hour IV infusion, geometric mean) was 35.5 L. The half-life (0.06 mg/kg, 5-minute IV infusion, geometric mean) was 60 min, the half-life (0.06 mg/kg, 1 hour IV infusion, geometric mean) was 43.7 min and the Tmax (0.06 mg/kg, males, 5-minute IV infusion) was 5 min. For the same molecule, the Tmax (0.06 mg/kg, males, 1 hour IV infusion) was 52.5 min, the AUC(0-t) [3] was 209 ng·h/mL and the AUC(0-inf) [3] was 213 ng·h/mL. It also gave a clearance [3] of 575 mL/min, a Cmax [3] of 783 ng/mL and an MRT [3] of 32.2 min. For the same molecule, the Vd (0.09 mg/kg, Vss, males, 0.09 mg/kg, 5-minute IV infusion, geometric mean) was 18.5 L, the Vd (0.09 mg/kg, Vz, males, 5-minute IV infusion, geometric mean) was 56.7 L and the half-life (0.09 mg/kg, 5-minute IV infusion, geometric mean) was 68.4 min. For the same molecule, the Tmax (0.09 mg/kg, males, 5-minute IV infusion) was 5 min, the AUC(0-t) [4] was 267 ng·h/mL and the AUC(0-inf) [4] was 270 ng·h/mL. For the same molecule, the clearance [4] was 533 mL/min, the Cmax [4] was 231 ng/mL and the MRT [4] was 43.4 min. For the same molecule, the Vd (0.12 mg/kg, Vss, males, 0.12 mg/kg, 1 hour IV infusion, geometric mean) was 23.1 L, the Vd (0.12 mg/kg, Vz, males, 1 hour IV infusion, geometric mean) was 75.9 L and the half-life (0.12 mg/kg, 1 hour IV infusion, geometric mean) was 99 min. It also gave a Tmax (0.12 mg/kg, males, 1 hour IV infusion) of 45 min, an AUC(0-t) [5] of 474 ng·h/mL and an AUC(0-inf) [5] of 478 ng·h/mL. The clearance [5] was 629 mL/min, the Cmax [5] was 431 ng/mL and the MRT [5] was 36.8 min. The Vd (0.24 mg/kg, Vss, males, 0.24 mg/kg, 1 hour IV infusion, geometric mean) was 23.2 L, the Vd (0.24 mg/kg, Vz, males, 1 hour IV infusion, geometric mean) was 74.6 L and the half-life (0.24 mg/kg, 1 hour IV infusion, geometric mean) was 82.2 min. For the same molecule, the Tmax (0.24 mg/kg, males, 1 hour IV infusion) was 60 min, the AUC(0-t) [6] was 808 ng·h/mL and the AUC(0-inf) [6] was 812 ng·h/mL. It also gave a clearance [6] of 569 mL/min, a Cmax [6] of 779 ng/mL and an MRT [6] of 37.4 min. For the same molecule, the Vd (0.36 mg/kg, Vss, males, 0.36 mg/kg, 1 hour IV infusion, geometric mean) was 21.2 L, the Vd (0.36 mg/kg, Vz, males, 1 hour IV infusion, geometric mean) was 80.6 L and the half-life (0.36 mg/kg, 1 hour IV infusion, geometric mean) was 98.4 min. The Tmax (0.36 mg/kg, males, 1 hour IV infusion) was 60 min, the AUC(0-t) [7] was 1080 ng·h/mL and the AUC(0-inf) [7] was 1080 ng·h/mL. The clearance [7] was 504 mL/min, the Cmax [7] was 943 ng/mL and the MRT [7] was 37.1 min. For the same molecule, the Vd (0.42 mg/kg, Vss, males, 0.42 mg/kg, 1 hour IV infusion, geometric mean) was 18.7 L, the Vd (0.42 mg/kg, Vz, males, 1 hour IV infusion, geometric mean) was 77.9 L and the half-life (0.42 mg/kg, 1 hour IV infusion, geometric mean) was 107 min. For the same molecule, the Tmax (0.42 mg/kg, males, 1 hour IV infusion) was 60 min, the AUC(0-t) [8] was 1120 ng·h/mL and the AUC(0-inf) [8] was 1120 ng·h/mL. For the same molecule, the clearance [8] was 576 mL/min, the Cmax [8] was 982 ng/mL and the MRT [8] was 38.9 min. The Vd (0.48 mg/kg, Vss, males, 0.48 mg/kg, 1 hour IV infusion, geometric mean) was 22.4 L, the Vd (0.48 mg/kg, Vz, males, 1 hour IV infusion, geometric mean) was 93.3 L and the half-life (0.48 mg/kg, 1 hour IV infusion, geometric mean) was 112 min. For the same molecule, the Tmax (0.48 mg/kg, males, 1 hour IV infusion) was 52.5 min, the “AUC0-t (norm), ratio of geometric least squares means 5-minute:1-hour” value (males) was 1.02 and the “AUC0-∞ (norm), ratio of geometric least squares means 5-minute:1-hour” value (males) was 1.04. The “CL, ratio of geometric least squares means 5-minute:1-hour” value (males) was 0.964, the “Cmax (norm), ratio of geometric least squares means 5-minute:1-hour” value (males) was 4.49 and the “Cmax, fold higher for the 5-minute compared to the 1-hour infusion” value (males) was “approximately 4.5 fold”. For the same molecule, the “MRTint, ratio of geometric least squares means 5-minute:1-hour” value (males) was 0.923, the “Vss, ratio of geometric least squares means 5-minute:1-hour” value (males) was 0.900 and the “Vz, ratio of geometric least squares means 5-minute:1-hour” value (males) was 1.03. The “t1/2, ratio of geometric least squares means 5-minute:1-hour” value (males) was 1.02, the MRTint (males, 0.24 mg/kg, 1 hour IV infusion, geometric mean) was 36.8 min and the “MRTint, geometric least squares mean” value (males, 1-hour infusion) was 36.3 min. For the same molecule, the “MRTint, geometric least squares mean” value (males, 5-minute infusion) was 33.5 min, the “Pooled between-subject variability for AUC0-∞” value [9] was 15.3% and the “Pooled between-subject variability for Cmax” value [9] was 24.1%.
